Series [1] has as its system dengue virus type 2. As to the kind of experiment: Antiviral activity against DENV2 New Guinea C strain infected in human Huh7 cells assessed as reduction in viral infection measured after 48 hrs post infection by renilla luciferase assay relative to control. The class given is functional, organism-based. Particulars: Huh-7, 48 h.
The subject of series [2] is Venezuelan equine encephalitis virus. As to the kind of experiment: Antiviral activity against Venezuelan equine encephalitis virus TC-83 strain infected in human U-87 MG cells assessed as reduction in viral infection measured after 18 hrs post infection by Nano luciferase assay relative to control. The class given is functional, organism-based. Particulars: TC-83, U-87 MG.

Series [3] in a line: Cytotoxicity against Venezuelan equine encephalitis virus TC-83 strain infected human U-87 MG cells assessed as reduction in cell viability by alamar blue assay. The class given is cell-based, U-87MG ATCC.
Series [4] is described as follows: Cytotoxicity against DENV infected human Huh-7 cells assessed as reduction in cell viability by alamar blue assay. Format: cell-based. Particulars: DENV-infected Huh-7 cells.

SMILES strings stand for the structures.

With `C#Cc1cccc(Nc2ccnc3ccc(C(F)(F)F)cc23)c1`, the values for the EC50 in series [1] and in series [2] were 3.8 µM and 2.5 µM, respectively. Moreover, the half-maximal cytotoxic concentration (CC50) in series [3] and in series [4] was greater than 10 µM in each case.
In the case of `FC(F)(F)c1ccc2nccc(Nc3ccccc3Cl)c2c1`, the EC50 in series [1] is greater than 10 µM; in series [2] it was 6.4 µM. In addition, the CC50 in series [3] and in series [4] was greater than 10 µM each time.
As to `C#Cc1cccc(Nc2ccnc3cc(OC)ccc23)c1`, the EC50 in series [1] was 1.7 µM; in series [2], greater than 10 µM. In addition, the half-maximal cytotoxic concentration (CC50) in series [3] and in series [4] was greater than 10 µM in each case.
As for `N#Cc1ccc(Nc2ccnc3ccc(C(F)(F)F)cc23)cc1`, the EC50 was 9.8 µM in series [1] and greater than 10 µM in series [2]. Further, the CC50 in series [3] and in series [4] was greater than 10 µM in each case.
`COc1cccc(Nc2ccnc3ccc(C(F)(F)F)cc23)c1`: the EC50 in series [1] is 0.82 µM; in series [2], 5.5 µM. The CC50 in series [3] and in series [4] was greater than 10 µM in each case.
As to `FC(F)(F)c1ccc2nccc(Nc3ccc4c(c3)OCO4)c2c1`, the results for the EC50 in series [1] and in series [2] were 4.1 µM and 1.5 µM, respectively. The CC50 in series [3] and in series [4] was greater than 10 µM each time.
With `CS(=O)(=O)c1cccc(Nc2ccnc3ccc(C(F)(F)F)cc23)c1`, the EC50 in series [1] and in series [2] was greater than 10 µM in each case. Moreover, the CC50 in series [3] and in series [4] was greater than 10 µM in each case.
On to `Fc1ccc(Nc2ccnc3ccc(C(F)(F)F)cc23)cc1F`, for which the EC50 in series [1] and in series [2] was greater than 10 µM in each case. The CC50 in series [3] and in series [4] was greater than 10 µM each time.
For the compound `C#Cc1cccc(Nc2ncnc3ccc(OC)cc23)c1`, the values for the EC50 in series [1] and in series [2] were 9.7 µM and 8 µM, respectively. In addition, the CC50 in series [3] and in series [4] was greater than 10 µM throughout.
Take `C#Cc1cccc(Nc2ccnc3cc(OC)c(OC)cc23)c1`: the EC50 was 8.6 µM in series [1] and 7.5 µM in series [2]. Further, the CC50 in series [3] and in series [4] was greater than 10 µM in each case.
Consider `Fc1cccc(Nc2ccnc3ccc(C(F)(F)F)cc23)c1`, for which the EC50 in series [1] and in series [2] was greater than 10 µM throughout. Besides, the CC50 in series [3] and in series [4] was greater than 10 µM in each case.
As for `Fc1cc(Nc2ccnc3ccc(C(F)(F)F)cc23)cc(F)c1F`, the concentration for a half-maximal effect (EC50) in series [1] and in series [2] was greater than 10 µM in each case. For the same compound, the CC50 in series [3] and in series [4] was greater than 10 µM throughout.
In the case of `FC(F)(F)c1cccc(Nc2ccnc3ccc(C(F)(F)F)cc23)c1`, the EC50 amounted to 5.7 µM in series [1] and 4.8 µM in series [2]. Also, the CC50 in series [3] and in series [4] was greater than 10 µM each time.
As for `FC(F)(F)c1ccc2nccc(Nc3ccc(Cl)cc3)c2c1`, the EC50 in series [1] is 7.2 µM; in series [2] it was 1.9 µM. The cytotoxic concentration (CC50) in series [3] and in series [4] was greater than 10 µM each time.
Turning to `COc1ccc(Nc2ccnc3ccc(C(F)(F)F)cc23)cc1OC`, the figures for the EC50 in series [1] and in series [2] were 8.9 µM and greater than 10 µM, respectively. In addition, the CC50 in series [3] and in series [4] was greater than 10 µM each time.
For `N#Cc1ccccc1Nc1ccnc2ccc(C(F)(F)F)cc12`, the EC50 in series [1] and in series [2] was greater than 10 µM throughout. Further, the CC50 in series [3] and in series [4] was greater than 10 µM throughout.
On to `COc1cc2nccc(Nc3cccc(C(C)=O)c3)c2cc1OC`, for which the results for the EC50 in series [1] and in series [2] were 4.8 µM and 1.3 µM, respectively. The CC50 in series [3] and in series [4] was greater than 10 µM in each case.
On to `N#Cc1cccc(Nc2ccnc3ccc(C(F)(F)F)cc23)c1`, for which the EC50 in series [1] was greater than 10 µM; in series [2] it was 2.2 µM. The CC50 in series [3] and in series [4] was greater than 10 µM in each case.
As for `COc1cc(Nc2ccnc3ccc(C(F)(F)F)cc23)cc(OC)c1OC`, the EC50 in series [2] came out at 1.6 µM. In addition, the CC50 in series [3] and in series [4] was greater than 10 µM throughout.
As for `C#Cc1cccc(Nc2ncnc3cc(OCCOC)c(OCCOC)cc23)c1` [ERLOTINIB], the EC50 in series [2] is greater than 20 µM.

The values above are taken from ChEMBL document CHEMBL5036348, “Identification and evaluation of 4-anilinoquin(az)olines as potent inhibitors of both dengue virus (DENV) and Venezuelan equine encephalitis virus (VEEV)” (Bioorg Med Chem Lett, 2021).
